Experimental data from patent publication US20240043427A1 (Gilead Sciences, Inc., priority 2020, published 2024).

Experiments:
CD73 [1] = target: T1, CD73 (Homo sapiens (Human), UniProt P21589); type: biochemical; conditions: 1 mM NaH2PO4 in enzyme buffer, CD73 0.3 nM, AMP 15 uM
CD73 [2] = target: T1, CD73; experiment: MDA-MB-231 Cell Based CD73 Activity Assay (DMEM); conditions: MDA-MB-231-GFP cells, DMEM medium with 10% human plasma, 200 uM AMP

T1 sequence (P21589 27-574): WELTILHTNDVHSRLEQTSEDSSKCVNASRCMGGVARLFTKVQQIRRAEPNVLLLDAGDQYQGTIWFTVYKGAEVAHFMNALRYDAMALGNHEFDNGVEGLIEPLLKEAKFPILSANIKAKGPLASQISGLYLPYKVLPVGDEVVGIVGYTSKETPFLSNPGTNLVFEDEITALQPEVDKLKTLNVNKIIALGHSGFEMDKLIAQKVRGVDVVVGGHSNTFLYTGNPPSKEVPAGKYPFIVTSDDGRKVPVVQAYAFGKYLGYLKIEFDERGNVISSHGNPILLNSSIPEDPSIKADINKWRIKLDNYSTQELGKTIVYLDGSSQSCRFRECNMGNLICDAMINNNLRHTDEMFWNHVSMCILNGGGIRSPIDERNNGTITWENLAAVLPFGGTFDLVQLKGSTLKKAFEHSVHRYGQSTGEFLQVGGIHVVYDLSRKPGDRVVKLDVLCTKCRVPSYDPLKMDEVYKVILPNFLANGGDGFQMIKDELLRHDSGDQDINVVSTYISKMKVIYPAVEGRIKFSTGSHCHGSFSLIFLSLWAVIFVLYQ

Row | IC50 (CD73 [1]) [nM] | EC50 (CD73 [2]) [nM] | Structure (SMILES)
1 | 0.68 | 0.25 | O=C1N(CC(F)(F)F)c2cc([C@H]3C[C@@H]3c3cc(-c4c[nH]c(=O)[nH]c4=O)nn4c(F)cnc34)ccc2C12CCCC2 [Example 385, 5-(3-fluoro-8-((1S,2S)-2-(2′-oxo-1′-(2,2,2-trifluoroethyl)spiro[cyclopentane-1,3′-indolin]-6′-yl)cyclopropyl)imidazo[1,2-b]pyridazin-6-yl)pyrimidine-2,4(1H,3H)-dione]
2 | 0.92 | 0.28 | O=C1N(CC(F)(F)F)c2cc([C@H]3C[C@@H]3c3cc(-c4c[nH]c(=O)[nH]c4=O)nn4c(F)cnc34)ccc2C12CCC2 [Example 386, 5-(3-fluoro-8-((1S,2S)-2-(2′-oxo-1′-(2,2,2-trifluoroethyl)spiro[cyclobutane-1,3′-indolin]-6′-yl)cyclopropyl)imidazo[1,2-b]pyridazin-6-yl)pyrimidine-2,4(1H,3H)-dione]
3 | 1.27 | 0.36 | O=C1N(CC(F)(F)F)c2cc([C@H]3C[C@@H]3c3cc(-c4c[nH]c(=O)[nH]c4=O)nn4ccnc34)ccc2C12CCCC2 [Example 387, 5-(8-((1S,2S)-2-(2′-oxo-1′-(2,2,2-trifluoroethyl)spiro[cyclopentane-1,3′-indolin]-6′-yl)cyclopropyl)imidazo[1,2-b]pyridazin-6-yl)pyrimidine-2,4(1H,3H)-dione]
4 | 0.41 | 0.21 | O=C1N(CC(F)(F)F)c2cc([C@H]3C[C@@H]3c3cc(-c4c[nH]c(=O)[nH]c4=O)nn4c(Cl)cnc34)ccc2C12CC2 [Example 388, 5-(3-chloro-8-((1S,2S)-2-(2′-oxo-1′-(2,2,2-trifluoroethyl)spiro[cyclopropane-1,3′-indolin]-6′-yl)cyclopropyl)imidazo[1,2-b]pyridazin-6-yl)pyrimidine-2,4(1H,3H)-dione]
5 | 1.25 | 0.34 | O=c1[nH]cc(-c2cc([C@H]3C[C@@H]3c3cc4c(cn3)c(F)cn4CC(F)(F)F)c3nccn3n2)c(=O)[nH]1 [Example 392, 5-(8-((1S,2S)-2-(3-fluoro-1-(2,2,2-trifluoroethyl)-1H-pyrrolo[3,2-c]pyridin-6-yl)cyclopropyl)imidazo[1,2-b]pyridazin-6-yl)pyrimidine-2,4(1H,3H)-dione]
6 | 0.74 | 0.16 | O=c1[nH]cc(-c2cc([C@H]3C[C@@H]3c3ccc4c(F)nn(CC(F)(F)F)c4c3)c3nccn3n2)c(=O)[nH]1 [Example 393, 5-(8-((1S,2S)-2-(3-fluoro-1-(2,2,2-trifluoroethyl)-1H-indazol-6-yl)cyclopropyl)imidazo[1,2-b]pyridazin-6-yl)pyrimidine-2,4(1H,3H)-dione]
7 | 5.94 | > 250 | O=c1[nH]cc(-c2cc([C@H]3C[C@@H]3c3cc(C(F)(F)F)c4cccnc4c3)c3nccn3n2)c(=O)[nH]1 [Example 394, 5-(8-((1S,2S)-2-(5-(trifluoromethyl)quinolin-7-yl)cyclopropyl)imidazo[1,2-b]pyridazin-6-yl)pyrimidine-2,4(1H,3H)-dione]
8 | 2.1 | 29.9 | O=c1[nH]cc(-c2cc([C@H]3C[C@@H]3c3cnc4c(C(F)(F)F)cccc4c3)c3nccn3n2)c(=O)[nH]1 [Example 395, 5-(8-((1S,2S)-2-(8-(trifluoromethyl)quinolin-3-yl)cyclopropyl)imidazo[1,2-b]pyridazin-6-yl)pyrimidine-2,4(1H,3H)-dione]
9 | 15.3 | 22.5 | O=c1[nH]cc(-c2cc(N3CC(F)(C(F)(F)F)C3)c3nccn3n2)c(=O)[nH]1 [Example 397, 5-(8-(3-fluoro-3-(trifluoromethyl)azetidin-1-yl)imidazo[1,2-b]pyridazin-6-yl)pyrimidine-2,4(1H,3H)-dione]
10 | 17.1 | 29.5 | O=c1[nH]cc(-c2cc(N3CC4(CCC4)C3)c3nccn3n2)c(=O)[nH]1 [Example 398, 5-(8-(2-azaspiro[3.3]heptan-2-yl)imidazo[1,2-b]pyridazin-6-yl)pyrimidine-2,4(1H,3H)-dione]
11 | 12.2 | 27 | CC1(C(F)F)CN(c2cc(-c3c[nH]c(=O)[nH]c3=O)nn3ccnc23)C1 [Example 399, 5-(8-(3-(difluoromethyl)-3-methylazetidin-1-yl)imidazo[1,2-b]pyridazin-6-yl)pyrimidine-2,4(1H,3H)-dione]
12 | 207 | 547 | O=c1[nH]cc(-c2cc(N3CC(C4CC4(F)F)C3)c3nccn3n2)c(=O)[nH]1 (stereo not shown) [Example 400, 5-(8-(3-(2,2-difluorocyclopropyl)azetidin-1-yl)imidazo[1,2-b]pyridazin-6-yl)pyrimidine-2,4(1H,3H)-dione]
13 | 12.6 | 53 | O=c1[nH]cc(-c2cc(N3CC(C4CCC4)C3)c3nccn3n2)c(=O)[nH]1 [Example 401, 5-(8-(3-cyclobutylazetidin-1-yl)imidazo[1,2-b]pyridazin-6-yl)pyrimidine-2,4(1H,3H)-dione]
14 | 53.2 | 136 | O=c1[nH]cc(-c2cc(N3CC(F)(C(F)(F)F)C3)n3ncnc3n2)c(=O)[nH]1 [Example 402, 5-(7-(3-fluoro-3-(trifluoromethyl)azetidin-1-yl)-[1,2,4]triazolo[1,5-a]pyrimidin-5-yl)pyrimidine-2,4(1H,3H)-dione]
15 | 8.94 | 28.5 | O=c1[nH]cc(-c2cc(N3CC(C(F)F)C3)c3nccn3n2)c(=O)[nH]1 [Example 403, 5-(8-(3-(difluoromethyl)azetidin-1-yl)imidazo[1,2-b]pyridazin-6-yl)pyrimidine-2,4(1H,3H)-dione]
16 | 22.9 | 77.6 | O=c1[nH]cc(-c2cc(N3CC(C4CC4)C3)c3nccn3n2)c(=O)[nH]1 [Example 404, 5-(8-(3-cyclopropylazetidin-1-yl)imidazo[1,2-b]pyridazin-6-yl)pyrimidine-2,4(1H,3H)-dione]
17 | 8.3 | 21.6 | O=c1[nH]cc(-c2cc(N3CC4(CCC4(F)F)C3)c3nccn3n2)c(=O)[nH]1 [Example 405, 5-(8-(5,5-difluoro-2-azaspiro[3.3]heptan-2-yl)imidazo[1,2-b]pyridazin-6-yl)pyrimidine-2,4(1H,3H)-dione]
18 | 25.6 | 98.2 | O=c1[nH]cc(-c2cc(N3CC4(C3)CC4(F)F)c3nccn3n2)c(=O)[nH]1 [Example 406, 5-(8-(1,1-difluoro-5-azaspiro[2.3]hexan-5-yl)imidazo[1,2-b]pyridazin-6-yl)pyrimidine-2,4(1H,3H)-dione]
19 | 10.7 | 37.8 | CC(C)(F)C1CN(c2cc(-c3c[nH]c(=O)[nH]c3=O)nn3ccnc23)C1 [Example 409, 5-(8-(3-(2-fluoropropan-2-yl)azetidin-1-yl)imidazo[1,2-b]pyridazin-6-yl)pyrimidine-2,4(1H,3H)-dione]
20 | 817 | 928 | O=c1[nH]cc(-c2cc(C3CCOCC3)c3nccn3n2)c(=O)[nH]1 [Example 410, 5-(8-(tetrahydro-2H-pyran-4-yl)imidazo[1,2-b]pyridazin-6-yl)pyrimidine-2,4(1H,3H)-dione]
21 | 0.79 | 3.93 | N#Cc1ccc([C@H]2C[C@@H]2c2cc(-c3c[nH]c(=O)[nH]c3=O)nn3c(F)cnc23)cc1F [Example 415, 4-((1S,2S)-2-(6-(2,4-dioxo-1,2,3,4-tetrahydropyrimidin-5-yl)-3-fluoroimidazo[1,2-b]pyridazin-8-yl)cyclopropyl)-2-fluorobenzonitrile]
22 | 0.96 | 4.71 | O=c1[nH]cc(-c2cc([C@H]3C[C@@H]3c3ccc(C(F)F)cc3)c3nccn3n2)c(=O)[nH]1 [Example 418, 5-(8-((1S,2S)-2-(4-(difluoromethyl)phenyl)cyclopropyl)imidazo[1,2-b]pyridazin-6-yl)pyrimidine-2,4(1H,3H)-dione]
23 | 1.23 | 8.9 | O=c1[nH]cc(-c2cc([C@H]3C[C@@H]3c3ccc(C(F)F)cc3)c3ncc(F)n3n2)c(=O)[nH]1 [Example 419, 5-(8-((1S,2S)-2-(4-(difluoromethyl)phenyl)cyclopropyl)-3-fluoroimidazo[1,2-b]pyridazin-6-yl)pyrimidine-2,4(1H,3H)-dione]
24 | 4.87 | 13.7 | CC1(C)CN(c2cc(-c3c[nH]c(=O)[nH]c3=O)nc3ncnn23)CC1(F)F [Example 420, 5-(7-(3,3-difluoro-4,4-dimethylpyrrolidin-1-yl)-[1,2,4]triazolo[1,5-a]pyrimidin-5-yl)pyrimidine-2,4(1H,3H)-dione]
25 | 31 | 65.1 | CC1(C)CN(c2cc(-c3c[nH]c(=O)[nH]c3=O)nc3nccn23)CC1(F)F [Example 421, 5-(5-(3,3-difluoro-4,4-dimethylpyrrolidin-1-yl)imidazo[1,2-a]pyrimidin-7-yl)pyrimidine-2,4(1H,3H)-dione]
26 | 72.7 | 155 | Cc1nc2c(N3CC(C)(C)C(F)(F)C3)cc(-c3c[nH]c(=O)[nH]c3=O)nn2c1F [Example 422, 5-(8-(3,3-difluoro-4,4-dimethylpyrrolidin-1-yl)-3-fluoro-2-methylimidazo[1,2-b]pyridazin-6-yl)pyrimidine-2,4(1H,3H)-dione]
27 | 39.2 | 76.4 | O=c1[nH]cc(-c2cc(N3CC(F)(CO)C3)c3nccn3n2)c(=O)[nH]1 [Example 423, 5-(8-(3-fluoro-3-(hydroxymethyl)azetidin-1-yl)imidazo[1,2-b]pyridazin-6-yl)pyrimidine-2,4(1H,3H)-dione]
28 | 1.64 | 4.1 | N#Cc1cc(F)c([C@H]2C[C@@H]2c2cc(-c3c[nH]c(=O)[nH]c3=O)nn3ccnc23)c(F)c1 [Example 424, 4-((1S,2S)-2-(6-(2,4-dioxo-1,2,3,4-tetrahydropyrimidin-5-yl)imidazo[1,2-b]pyridazin-8-yl)cyclopropyl)-3,5-difluorobenzonitrile]
29 | 1.63 | 5.63 | N#Cc1cc(F)c([C@H]2C[C@@H]2c2cc(-c3c[nH]c(=O)[nH]c3=O)nn3c(F)cnc23)c(F)c1 [Example 425, 4-((1S,2S)-2-(6-(2,4-dioxo-1,2,3,4-tetrahydropyrimidin-5-yl)-3-fluoroimidazo[1,2-b]pyridazin-8-yl)cyclopropyl)-3,5-difluorobenzonitrile]
